In patent publication US10689414B2 (Agios Pharmaceuticals, Inc., priority 2013, dated 2020):

System: U87MG cells
Experiment: Cellular assay, inhibition of 2-HG production in U87MG cells
Format: cell-based
Conditions: Homo sapiens, U-87 MG, 48 h
Description: Cells (HT1080 or U87MG) are grown in T125 flasks in DMEM containing 10% FBS, 1× penicillin/streptomycin and 500 ug/mL G418 (present in U87MG cells only). They are harvested by trypsin and seeded into 96 well white bottom plates at a density of 5000 cell/well in 100 ul/well in DMEM with 10% FBS. […] Cells are incubated overnight at 37° C. in 5% CO2. The next day test compounds are made up at 2× the final concentration and 100 ul are added to each cell well. The final concentration of DMSO is 0.2% and the DMSO control wells are plated in row G. The plates are then placed in the incubator for 48 hours. […] The cell plate is placed back in the incubator for another 24 hours. At 72 hours post compound addition, 10 mL/plate of Promega Cell Titer Glo reagent is thawed and mixed. The cell plate is removed from the incubator and allowed to equilibrate to room temperature. Then 100 ul of Promega Cell Titer Glo reagent is added to each well of media. The cell plate is then placed on an orbital shaker for 10 minutes and then allowed to sit at room temperature for 20 minutes. The plate is then read for luminescence with an integration time of 500 ms.

| SMILES | IC50 [nM] |
| --- | --- |
| O=C(NC1CCC(F)(F)C1)C(c1ccccc1Cl)N(C(=O)[C@@H]1CCC(=O)N1c1ncccn1)c1cccc(F)c1 (mixture of isomers) [Compound 73, (2S)—N-(1-(2-Chlorophenyl)-2-((3,3-difluorocyclopentyl)amino)-2-oxoethyl)-N-(3-fluorophenyl)-5-oxo-1-(pyrimidin-2-yl)pyrrolidine-2-carboxamide] | < 100 |
| N#Cc1ccnc(N2C(=O)OCC[C@H]2C(=O)N(c2cccc(F)c2)C(C(=O)NC2CC(F)(F)C2)c2ccccc2Cl)c1 (mixture of isomers) [Compound 90, (4S)—N-(1-(2-Chlorophenyl)-2-(3,3-difluorocyclobutylamino)-2-oxoethyl)-3-(4-cyanopyridin-2-yl)-N-(3-fluorophenyl)-2-oxo-1,3-oxazinane-4-carboxamide] | < 100 |
| CS(=O)(=O)c1cccc(N(C(=O)[C@@H]2CCC(=O)N2c2nccc(C#N)n2)C(C(=O)NC2CC(F)(F)C2)c2ccccc2Cl)c1 (mixture of isomers) [Compound 102, (2S)—N-(1-(2-Chlorophenyl)-2-((3,3-difluorocyclobutyl)amino)-2-oxoethyl)-1-(4-cyanopyrimidin-2-yl)-N-(3-(methylsulfonyl)phenyl)-5-oxopyrrolidine-2-carboxamide] | 100 to 500 |
| CC(C)(O)c1cc(F)cc(N(C(=O)[C@@H]2COC(=O)N2c2cc(C#N)ccn2)C(C(=O)NC2CC(F)(F)C2)c2ccccc2Cl)c1 (mixture of isomers) [Compound 145, (4S)—N-(1-(2-Chlorophenyl)-2-(3,3-difluorocyclobutylamino)-2-oxoethyl)-3-(4-cyanopyridin-2-yl)-N-(3-fluoro-5-(2-hydroxypropan-2-yl)phenyl)-2-oxooxazolidine-4-carboxamide] | < 100 |
| N#Cc1cc(F)cc(N(C(=O)[C@@H]2C[C@@H](O)C(=O)N2c2cc(C#N)ccn2)C(C(=O)NC2CC(F)(F)C2)c2ccccc2Cl)c1 (mixture of isomers) [Compound 169, (2S,4R)—N-(1-(2-Chlorophenyl)-2-(3,3-difluorocyclobutylamino)-2-oxoethyl)-N-(3-cyano-5-fluorophenyl)-1-(4-cyanopyridin-2-yl)-4-hydroxy-5-oxopyrrolidine-2-carboxamide] | < 100 |
| N#Cc1ccnc(N2C(=O)CC[C@H]2C(=O)N(c2cccc(-c3cn[nH]c3)c2)[C@H](C(=O)NC2CC(F)(F)C2)c2ccccc2Cl)c1 (single isomer, unassigned) [Compound 200] | < 100 |
| O=C(NC1CC(F)(F)C1)C(c1ccccc1Cl)N(C(=O)[C@@H]1CCCC(=O)N1c1ncccn1)c1cccc(F)c1 (stereo in doubt) [Compound 20, (S)—N—((R)-1-(2-Chloro-phenyl)-2-((3,3-difluorocyclobutyl)amino)-2-oxoethyl)-N-(3-fluoro-phenyl)-6-oxo-1-(pyrimidin-2-yl)piperidine-2-carboxamide] | 100 to 500 |
| O=C(NC1CCCCC1)[C@H](c1ccccc1Cl)N(C(=O)[C@@H]1CCC(=O)N1c1ncccn1)c1cccc(F)c1 [Compound 7] | < 100 |
| O=C(NC1CC(F)(F)C1)[C@H](c1ccccc1Cl)N(C(=O)[C@@H]1CCC(=O)N1c1nccs1)c1cccc(F)c1 [Compound 14] | 100 to 500 |
| O=C(NC1CC(F)(F)C1)[C@H](c1ccccc1Cl)N(C(=O)[C@@H]1CCC(=O)N1c1cnccn1)c1cccc(F)c1 [Compound 18] | < 100 |
| O=C(NC1CC(F)(F)C1)C(c1ccccc1Cl)N(C(=O)[C@@H]1CCC(=O)N1c1ccccc1)c1cccc(F)c1 (stereo partly shown) [Compound 23] | 100 to 500 |
| O=C(NC1CC(F)(F)C1)[C@H](c1ccccc1Cl)N(C(=O)[C@@H]1COCC(=O)N1c1ncccn1)c1cccc(F)c1 [Compound 30, (S)—N—((S)-1-(2-chlorophenyl)-2-((3,3-difluorocyclobutyl)amino)-2-oxoethyl)-N-(3-fluorophenyl)-5-oxo-4-(pyrimidin-2-yl)morpholine-3-carboxamide] | 100 to 500 |
| O=C(NC1CC(F)(F)C1)[C@H](c1ccccc1Cl)N(C(=O)[C@@H]1CCC(=O)N1c1cc(Cl)ccn1)c1cccc(F)c1 [Compound 33] | 100 to 500 |
| N#Cc1ccc(N2C(=O)CC[C@H]2C(=O)N(c2cccc(F)c2)[C@H](C(=O)NC2CC(F)(F)C2)c2ccccc2Cl)nc1 [Compound 47] | 100 to 500 |
| O=C(NC1CC(F)(F)C1)C(c1c(Cl)cccc1Cl)N(C(=O)[C@@H]1CCC(=O)N1c1ncccn1)c1cccc(F)c1 (stereo partly shown) [Compound 51] | 100 to 500 |
| N#Cc1ccnc(N2C(=O)CC[C@H]2C(=O)N(c2cccc(F)c2)[C@H](C(=O)NC2CCC(F)(F)CC2)c2ccccc2Cl)c1 [Compound 53] | < 100 |
| N#Cc1ccnc(N2C(=O)CC[C@H]2C(=O)N(c2cccc(F)c2)[C@H](C(=O)NC2CC(F)(F)C2)c2ccccc2Cl)n1 [Compound 68, (S)—N—((S)-1-(2-Chlorophenyl)-2-((3,3-difluorocyclobutyl)amino)-2-oxoethyl)-1-(4-cyanopyrimidin-2-yl)-N-(3-fluorophenyl)-5-oxopyrrolidine-2-carboxamide] | < 100 |
| N#Cc1cccnc1N1C(=O)CC[C@H]1C(=O)N(c1cccc(F)c1)[C@H](C(=O)NC1CC(F)(F)C1)c1ccccc1Cl [Compound 69, (S)—N—((S)-1-(2-Chlorophenyl)-2-((3,3-difluorocyclobutyl)amino)-2-oxoethyl)-1-(3-cyanopyri-din-2-yl)-N-(3-fluorophenyl)-5-oxopyrrolidine-2-carboxamide] | < 100 |
| O=C(NC1CC(F)(F)C1)[C@H](c1ccccc1Cl)N(C(=O)[C@@H]1CCC(=O)N1c1ncccn1)c1cc(F)cc(F)c1 [Compound 70, (S)—N—((S)-1-(2-Chlorophenyl)-2-((3,3-difluorocyclobutyl)amino)-2-oxoethyl)-N-(3,5-difluoro-phenyl)-5-oxo-1-(pyrimidin-2-yl)pyrrolidine-2-carboxamide] | < 100 |
| N#Cc1ccnc(N2C(=O)CC[C@H]2C(=O)N(c2cc(F)cc(F)c2)[C@H](C(=O)NC2CC(F)(F)C2)c2ccccc2Cl)c1 [Compound 71, (S)—N—((S)-1-(2-Chlorophenyl)-2-((3,3-difluorocyclobutyl)amino)-2-oxoethyl)-1-(4-cyanopyridin-2-yl)-N-(3,5-difluorophenyl)-5-oxopyrrolidine-2-carboxamide] | < 100 |
| O=C(NC1CC(F)(F)C1)[C@H](c1ccccc1Cl)N(C(=O)[C@@H]1COC(=O)N1c1cscn1)c1cccc(F)c1 [Compound 72] | < 100 |
| N#Cc1ccnc(N2C(=O)CCC[C@H]2C(=O)N(c2cccc(F)c2)[C@H](C(=O)NC2CCC(F)(F)CC2)c2ccccc2Cl)c1 [Compound 75, (S)—N—((S)-1-(2-Chlorophenyl)-2-((4,4-difluorocyclohexyl)amino)-2-oxoethyl)-1-(4-cyano-pyridin-2-yl)-N-(3-fluorophenyl)-6-oxopiperidine-2-carboxamide] | < 100 |

The next lines start with the values.

| IC50 [nM] | SMILES |
| --- | --- |
| < 100 | C[C@]1(O)C[C@@H](C(=O)N(c2cccc(F)c2)[C@H](C(=O)NC2CC(F)(F)C2)c2ccccc2Cl)N(c2cc(C#N)ccn2)C1=O (stereo in doubt) [Compound 183, (2S)—N—((R)-1-(2-chlorophenyl)-2-(3,3-difluorocyclobutylamino)-2-oxoethyl)-1-(4-cyanopyridin-2-yl)-N-(3-fluorophenyl)-4-hydroxy-4-methyl-5-oxopyrrolidine-2-carboxamide] |
| < 100 | O=C(NC1CCC(F)(F)CC1)[C@H](c1ccccc1Cl)N(C(=O)[C@@H]1CCC(=O)N1c1ncccn1)c1cccc(F)c1 [Compound 4, (S)—N—((S)-1-(2-chlorophenyl)-2-((4,4-difluorocyclohexyl)amino)-2-oxoethyl)-N-(3-fluoro-phenyl)-5-oxo-1-(pyrimidin-2-yl)pyrrolidine-2-carboxamide] |
| < 100 | O=C(NC1CC(F)(F)C1)[C@H](c1ccccc1Cl)N(C(=O)[C@@H]1COC(=O)N1c1ncccn1)c1cccc(F)c1 [Compound 9, (S)—N—((S)-1-(2-chloro-phenyl)-2-(3,3-difluorocyclo-butylamino)-2-oxoethyl)-N-(3-fluoro-phenyl)-2-oxo-3-(pyrimidin-2-yl)oxazolidine-4-carboxamide] |
| 100 to 500 | Cc1ccc(N2C(=O)CC[C@H]2C(=O)N(c2cccc(F)c2)[C@H](C(=O)NC2CC(F)(F)C2)c2ccccc2Cl)nc1 [Compound 21] |
| < 100 | O=C(NC1CC(F)(F)C1)[C@H](c1ccccc1Cl)N(C(=O)[C@@H]1CCC(=O)N1c1ccc(F)cn1)c1cccc(F)c1 [Compound 29] |
| < 100 | N#Cc1ccnc(N2C(=O)CC[C@H]2C(=O)N(c2cccc(F)c2)[C@H](C(=O)NC2CC(F)(F)C2)c2ccccc2Cl)c1 [Compound 37] |
| < 100 | O=C(NC1CC(F)(F)C1)[C@H](c1ccccc1Cl)N(C(=O)[C@@H]1CCC(=O)N1c1cscn1)c1cccc(F)c1 [Compound 43, (S)—N—((S)-1-(2-Chlorophenyl)-2-(3,3-difluorocyclobutylamino)-2-oxoethyl)-N-(3-fluorophenyl)-5-oxo-1-(thiazol-4-yl)pyrrolidine-2-carboxamide] |
| < 100 | N#Cc1ccnc(N2C(=O)CCC[C@H]2C(=O)N(c2cccc(F)c2)[C@H](C(=O)NC2CC(F)(F)C2)c2ccccc2Cl)c1 [Compound 55, (S)—N—((S)-1-(2-Chlorophenyl)-2-(3,3-difluorocyclobutylamino)-2-oxoethyl)-1-(4-cyanopyri-din-2-yl)-N-(3-fluorophenyl)-6-oxopiperidine-2-carboxamide] |
| < 100 | O=C(NC1CCC(F)(F)CC1)[C@H](c1ccccc1Cl)N(C(=O)[C@@H]1CCC(=O)N1c1cnccn1)c1cccc(F)c1 [Compound 58, (S)—N—((S)-1-(2-Chlorophenyl)-2-(4,4-difluorocyclohexylamino)-2-oxoethyl)-N-(3-fluorophenyl)-5-oxo-1-(pyrazin-2-yl)pyrrolidine-2-carboxamide] |
